Experimental data taken from ChEMBL document CHEMBL1201862, “PubChem BioAssay data set” (2004).
Active and inactive are the calls of the source.

Assays:
[1] = off-target signal loss in HeLa-CEM21 co-culture – HeLa F-luc CTL cells, cherry-picked, counter-screen for HIV-1 Env fusion inhibitor project, dose response (AID 652040); type: functional, cell-based;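 further: potency for signal decrease marking cytotoxic or nonspecific inhibition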
[2] = blockers of HIV-1 envelope-mediated cell-cell fusion – cherry-pick, dose response (AID 652057); type: functional, cell-based
[3] = blockers of HIV-1 ZM109 envelope-driven cell-cell fusion – HeLa effector, CEM target cells, luciferase, cherry-pick, dose response (AID 652058); type: functional, cell-based;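 further: luciferase signal from HIV-1 Env mediated cell-cell fusion of effector and target cells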
[4] = HIV-1 AD8 envelope cell-cell fusion blockers – cherry-pick, dose response (AID 652062); type: functional, cell-based;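 further: luciferase signal from cell-cell fusion driven by HIV-1 clade B AD8 Env; potency is for inhibitors of fusion seen as a drop in luminescence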
[5] = target: T1, Low molecular weight phosphotyrosine protein phosphatase (Homo sapiens, UniProt P24666); type: functional; conditions: read-out: IC50_Mean;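 further: Dose-response confirmation assay measuring inhibition of LMPTP enzyme activity by fluorescence intensity read-out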
T1 sequence (P24666 whole entry): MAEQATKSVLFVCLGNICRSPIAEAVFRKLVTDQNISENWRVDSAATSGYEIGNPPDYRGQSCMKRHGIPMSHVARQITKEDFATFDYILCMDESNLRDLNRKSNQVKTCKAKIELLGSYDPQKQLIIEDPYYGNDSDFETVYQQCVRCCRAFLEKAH

HEK293 = assay: EBV LMP1 TES2 canonical NF-kB signalling blockers – cell-based, HEK293, luciferase, cherry-pick, dose response (AID 588343); type: functional; conditions: Homo sapiens
Fatty acid synthase [6] = target: T2, Fatty acid synthase (Homo sapiens, UniProt P49327); assay: inhibition of human FAS-TE enzyme activity – biochemical, endpoint fluorescence intensity, uHTS hits, dose response (AID 624327); type: functional;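 further: fluorescence from hydrolysis of an O-methyl fluorescein acyl ester substrate by the enzyme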
T2 sequence (P49327 whole entry): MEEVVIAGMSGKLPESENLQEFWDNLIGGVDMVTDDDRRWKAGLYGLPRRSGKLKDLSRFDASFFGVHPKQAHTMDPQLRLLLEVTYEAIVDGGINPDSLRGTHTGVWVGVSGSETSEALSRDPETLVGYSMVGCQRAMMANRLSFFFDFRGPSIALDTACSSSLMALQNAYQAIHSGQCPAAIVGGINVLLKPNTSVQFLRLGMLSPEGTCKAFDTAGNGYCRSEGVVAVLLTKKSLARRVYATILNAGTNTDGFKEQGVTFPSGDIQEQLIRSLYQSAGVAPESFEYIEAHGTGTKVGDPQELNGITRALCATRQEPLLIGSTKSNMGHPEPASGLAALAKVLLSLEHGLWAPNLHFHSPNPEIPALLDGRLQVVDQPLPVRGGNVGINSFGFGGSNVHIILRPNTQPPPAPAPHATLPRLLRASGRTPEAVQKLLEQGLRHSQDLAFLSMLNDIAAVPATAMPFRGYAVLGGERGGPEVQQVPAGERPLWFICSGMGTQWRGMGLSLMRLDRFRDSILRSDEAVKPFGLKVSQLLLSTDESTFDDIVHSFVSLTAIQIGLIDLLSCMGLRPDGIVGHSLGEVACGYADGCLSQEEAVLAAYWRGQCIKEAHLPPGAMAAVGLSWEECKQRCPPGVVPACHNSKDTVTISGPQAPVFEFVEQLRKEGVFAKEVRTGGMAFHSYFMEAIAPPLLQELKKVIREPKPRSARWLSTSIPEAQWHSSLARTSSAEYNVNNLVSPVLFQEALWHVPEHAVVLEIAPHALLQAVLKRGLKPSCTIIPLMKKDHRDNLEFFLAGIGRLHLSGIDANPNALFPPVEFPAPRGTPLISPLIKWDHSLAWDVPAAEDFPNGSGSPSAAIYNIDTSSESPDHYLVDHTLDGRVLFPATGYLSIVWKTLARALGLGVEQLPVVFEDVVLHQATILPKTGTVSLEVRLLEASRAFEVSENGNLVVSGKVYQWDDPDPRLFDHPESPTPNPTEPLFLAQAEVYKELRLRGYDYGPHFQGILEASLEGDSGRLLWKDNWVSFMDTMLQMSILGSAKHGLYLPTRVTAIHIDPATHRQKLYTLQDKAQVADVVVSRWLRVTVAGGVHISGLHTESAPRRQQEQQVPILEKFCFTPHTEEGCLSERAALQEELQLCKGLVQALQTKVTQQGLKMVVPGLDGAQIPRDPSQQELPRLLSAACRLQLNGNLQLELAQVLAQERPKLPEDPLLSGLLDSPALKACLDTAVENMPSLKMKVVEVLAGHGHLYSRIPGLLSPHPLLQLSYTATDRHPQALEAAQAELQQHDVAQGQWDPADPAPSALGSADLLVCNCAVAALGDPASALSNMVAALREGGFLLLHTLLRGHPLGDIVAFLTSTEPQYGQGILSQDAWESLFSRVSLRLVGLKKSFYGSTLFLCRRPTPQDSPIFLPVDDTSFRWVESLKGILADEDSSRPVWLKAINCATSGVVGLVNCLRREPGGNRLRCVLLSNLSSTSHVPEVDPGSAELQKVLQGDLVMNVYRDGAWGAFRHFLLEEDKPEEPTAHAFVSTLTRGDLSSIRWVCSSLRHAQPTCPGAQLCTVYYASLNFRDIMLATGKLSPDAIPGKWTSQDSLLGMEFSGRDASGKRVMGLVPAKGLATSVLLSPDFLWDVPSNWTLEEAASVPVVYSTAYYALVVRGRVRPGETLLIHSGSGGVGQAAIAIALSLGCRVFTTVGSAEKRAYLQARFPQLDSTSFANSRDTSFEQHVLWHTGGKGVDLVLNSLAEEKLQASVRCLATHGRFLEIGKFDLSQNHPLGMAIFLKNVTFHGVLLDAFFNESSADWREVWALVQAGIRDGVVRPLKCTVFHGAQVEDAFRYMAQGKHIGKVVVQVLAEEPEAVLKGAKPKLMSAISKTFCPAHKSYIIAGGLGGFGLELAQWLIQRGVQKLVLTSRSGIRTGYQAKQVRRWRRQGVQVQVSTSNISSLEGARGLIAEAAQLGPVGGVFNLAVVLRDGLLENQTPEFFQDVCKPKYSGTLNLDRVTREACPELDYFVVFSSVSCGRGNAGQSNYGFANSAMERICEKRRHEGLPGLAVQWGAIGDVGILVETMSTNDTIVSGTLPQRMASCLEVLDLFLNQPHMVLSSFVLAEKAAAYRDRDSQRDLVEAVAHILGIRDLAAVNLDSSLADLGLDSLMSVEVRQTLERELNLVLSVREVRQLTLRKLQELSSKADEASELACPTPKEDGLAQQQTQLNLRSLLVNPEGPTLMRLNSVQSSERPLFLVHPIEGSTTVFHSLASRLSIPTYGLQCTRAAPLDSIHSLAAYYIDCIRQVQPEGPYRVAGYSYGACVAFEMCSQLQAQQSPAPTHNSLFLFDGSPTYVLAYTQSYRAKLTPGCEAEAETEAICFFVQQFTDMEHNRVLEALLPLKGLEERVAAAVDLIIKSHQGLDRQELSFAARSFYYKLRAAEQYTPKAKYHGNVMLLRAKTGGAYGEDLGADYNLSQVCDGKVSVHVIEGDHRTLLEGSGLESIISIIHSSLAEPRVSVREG

Fatty acid synthase [7] = target: T2, Fatty acid synthase; assay: inhibition of human FAS-TE enzyme activity – biochemical, kinetic fluorescence intensity, dose response (AID 624326); type: functional;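 further: rate of fluorescence rise from hydrolysis of a fluorogenic O-methyl fluorescein ester substrate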
[8] = target: Voltage-dependent T-type calcium channel subunit alpha-1H (Homo sapiens, UniProt O95180); type: functional;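 further: channel activity triggered by adding a high calcium stimulation buffer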
Voltage-dependent T-type calcium channel subunit alpha-1H, sequence (O95180 whole entry): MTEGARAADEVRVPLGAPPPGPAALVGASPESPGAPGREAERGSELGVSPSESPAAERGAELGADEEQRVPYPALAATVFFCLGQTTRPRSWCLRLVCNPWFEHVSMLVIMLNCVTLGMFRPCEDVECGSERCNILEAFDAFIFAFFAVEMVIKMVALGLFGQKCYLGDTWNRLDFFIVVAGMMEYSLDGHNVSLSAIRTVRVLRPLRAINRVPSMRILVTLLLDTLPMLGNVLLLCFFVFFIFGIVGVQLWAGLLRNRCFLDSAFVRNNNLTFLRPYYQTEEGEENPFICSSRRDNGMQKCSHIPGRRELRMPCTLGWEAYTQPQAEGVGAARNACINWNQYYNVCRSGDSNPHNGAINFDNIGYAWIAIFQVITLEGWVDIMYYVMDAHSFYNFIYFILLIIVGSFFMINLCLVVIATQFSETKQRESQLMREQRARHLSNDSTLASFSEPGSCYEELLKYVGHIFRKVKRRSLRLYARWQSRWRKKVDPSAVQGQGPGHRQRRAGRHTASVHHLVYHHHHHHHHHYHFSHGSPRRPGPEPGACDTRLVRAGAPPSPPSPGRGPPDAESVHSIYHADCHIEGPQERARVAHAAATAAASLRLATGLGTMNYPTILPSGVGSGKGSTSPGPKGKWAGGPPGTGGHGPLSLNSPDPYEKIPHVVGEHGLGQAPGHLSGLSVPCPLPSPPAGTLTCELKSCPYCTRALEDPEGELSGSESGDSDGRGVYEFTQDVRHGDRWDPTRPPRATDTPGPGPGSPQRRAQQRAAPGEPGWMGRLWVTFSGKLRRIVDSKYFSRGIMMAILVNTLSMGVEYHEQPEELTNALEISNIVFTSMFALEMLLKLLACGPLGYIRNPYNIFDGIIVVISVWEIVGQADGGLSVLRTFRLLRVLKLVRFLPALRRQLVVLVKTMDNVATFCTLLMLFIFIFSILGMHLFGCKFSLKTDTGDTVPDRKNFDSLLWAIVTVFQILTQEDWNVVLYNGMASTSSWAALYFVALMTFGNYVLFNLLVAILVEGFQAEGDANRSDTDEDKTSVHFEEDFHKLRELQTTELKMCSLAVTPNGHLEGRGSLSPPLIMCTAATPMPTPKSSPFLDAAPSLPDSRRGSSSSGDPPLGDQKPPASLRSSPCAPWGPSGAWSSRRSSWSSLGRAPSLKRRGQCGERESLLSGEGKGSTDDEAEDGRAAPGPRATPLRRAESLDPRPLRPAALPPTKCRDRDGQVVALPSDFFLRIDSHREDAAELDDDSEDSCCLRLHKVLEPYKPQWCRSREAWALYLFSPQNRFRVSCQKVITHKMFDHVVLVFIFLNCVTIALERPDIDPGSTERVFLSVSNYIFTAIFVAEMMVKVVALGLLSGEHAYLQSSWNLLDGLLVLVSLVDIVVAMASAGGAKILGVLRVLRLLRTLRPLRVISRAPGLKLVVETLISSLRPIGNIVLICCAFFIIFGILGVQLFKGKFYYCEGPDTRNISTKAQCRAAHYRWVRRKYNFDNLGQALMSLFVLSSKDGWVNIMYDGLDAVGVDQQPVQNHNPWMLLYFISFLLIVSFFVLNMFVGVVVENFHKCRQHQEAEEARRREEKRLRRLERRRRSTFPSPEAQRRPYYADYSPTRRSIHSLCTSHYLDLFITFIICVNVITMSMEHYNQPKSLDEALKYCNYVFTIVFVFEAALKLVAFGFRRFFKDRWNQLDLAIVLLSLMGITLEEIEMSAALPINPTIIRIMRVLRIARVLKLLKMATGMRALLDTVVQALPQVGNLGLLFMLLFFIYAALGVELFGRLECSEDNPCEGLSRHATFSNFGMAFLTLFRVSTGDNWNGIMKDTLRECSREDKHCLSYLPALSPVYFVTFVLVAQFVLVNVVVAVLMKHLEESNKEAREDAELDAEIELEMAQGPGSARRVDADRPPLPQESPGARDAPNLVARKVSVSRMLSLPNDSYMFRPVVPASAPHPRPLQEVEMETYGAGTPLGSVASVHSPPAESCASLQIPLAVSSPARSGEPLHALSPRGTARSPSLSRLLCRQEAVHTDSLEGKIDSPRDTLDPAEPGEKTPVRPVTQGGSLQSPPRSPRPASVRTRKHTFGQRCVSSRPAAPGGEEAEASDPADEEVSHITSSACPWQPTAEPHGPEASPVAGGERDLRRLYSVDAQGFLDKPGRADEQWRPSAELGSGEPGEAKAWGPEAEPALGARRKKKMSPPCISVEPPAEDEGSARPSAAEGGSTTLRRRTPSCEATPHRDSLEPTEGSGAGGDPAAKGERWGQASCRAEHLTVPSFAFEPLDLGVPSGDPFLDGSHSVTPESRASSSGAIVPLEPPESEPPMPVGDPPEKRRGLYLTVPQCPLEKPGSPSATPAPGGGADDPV

Phospholipase A2 = Phospholipase A2 (Homo sapiens, UniProt P04054); type: functional;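 further: confirmatory dose-response counterscreen on phospholipase A2, testing hits that came from an ultra-high-throughput screen for ATG4B inhibitors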
Phospholipase A2, sequence (P04054 whole entry): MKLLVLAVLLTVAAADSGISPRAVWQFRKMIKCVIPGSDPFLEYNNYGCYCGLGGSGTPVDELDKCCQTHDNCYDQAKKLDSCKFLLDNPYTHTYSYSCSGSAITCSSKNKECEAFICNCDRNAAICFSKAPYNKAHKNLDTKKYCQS

Cysteine protease ATG4B = target: T3, Cysteine protease ATG4B (Homo sapiens, UniProt Q9Y4P1); type: functional;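 further: Fluorescence-based dose-response confirmation assay measuring inhibition of ATG4B activity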
T3 sequence (Q9Y4P1 whole entry): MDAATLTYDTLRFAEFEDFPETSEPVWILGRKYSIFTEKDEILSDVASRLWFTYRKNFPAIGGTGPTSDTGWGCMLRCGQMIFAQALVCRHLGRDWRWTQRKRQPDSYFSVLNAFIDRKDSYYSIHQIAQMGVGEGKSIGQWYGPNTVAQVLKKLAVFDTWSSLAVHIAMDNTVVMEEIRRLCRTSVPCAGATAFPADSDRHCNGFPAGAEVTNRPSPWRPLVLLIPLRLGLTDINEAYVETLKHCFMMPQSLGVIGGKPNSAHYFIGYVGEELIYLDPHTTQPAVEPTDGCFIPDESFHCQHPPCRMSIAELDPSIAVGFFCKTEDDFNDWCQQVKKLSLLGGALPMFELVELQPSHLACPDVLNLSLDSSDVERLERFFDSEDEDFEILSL

[9] = target: T4, Long-chain-fatty-acid--AMP ligase FadD28 (Mycobacterium tuberculosis, UniProt P9WQ59); assay: Fluorescence polarization aasay to screen for inhibitors that compete for the binding of FadD28 to a bisubstrate Measured in Biochemical System Using Plate Reader - 2147-01_Inhibitor_Dose_CherryPick_Activity.; type: functional, Mycobacterium tuberculosis H37Rv
T4 sequence (P9WQ59 whole entry): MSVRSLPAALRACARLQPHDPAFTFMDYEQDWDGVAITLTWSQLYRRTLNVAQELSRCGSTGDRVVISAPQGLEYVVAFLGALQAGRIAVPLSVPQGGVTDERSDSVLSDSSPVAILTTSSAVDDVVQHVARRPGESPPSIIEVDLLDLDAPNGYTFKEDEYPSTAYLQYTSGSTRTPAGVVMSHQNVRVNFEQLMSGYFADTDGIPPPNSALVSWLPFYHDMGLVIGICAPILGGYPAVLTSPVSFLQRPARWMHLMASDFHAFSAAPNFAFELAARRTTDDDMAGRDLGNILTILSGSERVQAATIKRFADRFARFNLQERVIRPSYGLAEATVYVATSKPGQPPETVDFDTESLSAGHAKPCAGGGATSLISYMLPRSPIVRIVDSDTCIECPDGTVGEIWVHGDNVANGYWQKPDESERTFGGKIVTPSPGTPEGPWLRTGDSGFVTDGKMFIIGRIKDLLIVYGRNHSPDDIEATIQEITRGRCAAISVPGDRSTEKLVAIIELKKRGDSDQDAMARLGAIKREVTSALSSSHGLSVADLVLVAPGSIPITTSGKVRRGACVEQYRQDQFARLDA

[10] = target: T5, Tyrosyl-DNA phosphodiesterase 2 (Homo sapiens, UniProt O95551); assay: potency against TDP2 phosphodiesterase activity – biochemical, epi absorbance, IC50, dose response (AID 743297)
T5 sequence (O95551 whole entry): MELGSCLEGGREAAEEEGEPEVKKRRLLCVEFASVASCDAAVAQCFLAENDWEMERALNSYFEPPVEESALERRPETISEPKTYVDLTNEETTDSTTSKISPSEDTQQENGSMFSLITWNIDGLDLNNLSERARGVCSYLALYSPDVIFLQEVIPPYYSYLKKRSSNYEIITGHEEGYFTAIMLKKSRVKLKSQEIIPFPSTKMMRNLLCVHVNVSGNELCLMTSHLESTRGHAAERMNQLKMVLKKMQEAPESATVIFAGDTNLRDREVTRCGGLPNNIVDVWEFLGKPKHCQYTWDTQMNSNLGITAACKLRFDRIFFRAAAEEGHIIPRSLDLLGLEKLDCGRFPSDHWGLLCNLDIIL

[11] = HIV-1 Vif–A3G interaction blockers – biochemical, TR-FRET, GST-Vif 1-94, biotin-A3G peptide, dose response retest, primary screen (AID 1117319); type: functional;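 further: TR-FRET signal of purified GST-Vif binding a biotinylated A3G peptide; inhibitors lower the FRET signal by blocking Vif and A3G binding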

SMILES: COc1ccc(C(O)(C2CCCCC2)C(CN2CCOCC2)c2ccccc2)cc1 (configuration not stated)
- AC50 [1]: 7.26 µM (active)
- AC50 [2]: 5.2 µM (active)
- AC50 [3]: 1.09 µM (active)
- AC50 [4]: 11.1 µM (active)

SMILES: O=C(CCCN1C(=O)C(=Cc2ccc3c(c2)OCO3)SC1=S)Nc1ccc(C(=O)O)c(O)c1
- IC50 [5]: 80 µM (inactive)

SMILES: c1ccc(CCCN2CCN(CCOC(c3ccccc3)c3ccccc3)CC2)cc1
- AC50 (HEK293): 23.8 µM (active)

SMILES: CC(Cc1ccccc1)=NNS(=O)(=O)c1ccc([N+](=O)[O-])cc1
- IC50 (Fatty acid synthase [6]): 9.15 µM (active)
- IC50 (Fatty acid synthase [7]): 12.7 µM (active)

SMILES: CC(C)Oc1ccc(C(CC(=O)NCc2ccco2)c2ccccc2)cc1 (configuration not stated)
- EC50 [8]: 4.77 µM (active)
- IC50 (Phospholipase A2): 11.6 µM (active)
- IC50 (Cysteine protease ATG4B): 16.4 µM (active)

SMILES: CC(C)N(C)S(=O)(=O)c1ccc(NC(=O)CSC(=S)N2CCCC2)cc1
- AC50 [9]: > 100 µM (inactive)

SMILES: CC1(C)Cc2c(sc(NC(=S)NC(=O)c3ccccc3)c2C(=O)O)CO1
- IC50 (Phospholipase A2): 13.1 µM (active)
- IC50 (Cysteine protease ATG4B): 21.1 µM (inactive)

SMILES: Clc1ccccc1N=Nc1ccccn1
- IC50 [10]: > 128 µM (inactive)
- IC50 [11]: > 100 µM (active)

SMILES: Cc1cc(N2CCN(c3nc(-c4ccccc4)cs3)CC2)c2ccccc2n1
- IC50 [5]: 9.27 µM (active)
